We go through 14 compounds from ChEMBL document CHEMBL3098118, “Access to a new class of biologically active quinoline based 1,2,4-triazoles” (2014).

Values after ≈ are worked out from the molar mass of the structure shown.

Common to all, as to format: functional
One assay relates to Pseudomonas aeruginosa. Nature of the assay: Antibacterial activity against Pseudomonas aeruginosa MTCC 741 by agar streak dilution method.
The subject of a further assay is Staphylococcus aureus. Nature of the assay: Antibacterial activity against Staphylococcus aureus MTCC 96 by agar streak dilution method.
For a further assay, the system named is Klebsiella pneumoniae. Put plainly: Antibacterial activity against Klebsiella pneumoniae MTCC 109 by agar streak dilution method.
Another assay concerns Escherichia coli. Nature of the assay: Antibacterial activity against Escherichia coli MTCC 739 by agar streak dilution method.
In the next assay the test system is Aspergillus niger. Nature of the assay: Antifungal activity against Aspergillus niger MTCC 282 by agar streak dilution method.
For another assay, the system named is Bacillus cereus. Nature of the assay: Antibacterial activity against Bacillus cereus MTCC 619 by agar streak dilution method.
In a further assay the test system is Candida albicans. Put plainly: Antifungal activity against Candida albicans MTCC 183 by agar streak dilution method.

In the case of `COc1ccc2nc(NC(=O)CSc3nnc(-c4ccc5ncccc5c4)n3-c3cccc4ccccc34)sc2c1`, the MIC is 50 µg/mL (≈ 87 µM) in the assay with Pseudomonas aeruginosa; 100 µg/mL (≈ 174 µM) against Staphylococcus aureus; 62.5 µg/mL (≈ 109 µM) against Klebsiella pneumoniae; 62.5 µg/mL (≈ 109 µM) against Escherichia coli; 6.25 µg/mL (≈ 10.9 µM) with Aspergillus niger; 100 µg/mL (≈ 174 µM) with Bacillus cereus. In the assay on Candida albicans, this compound registered an MIC of 25 µg/mL (≈ 43.5 µM).

Turning to `CCOc1ccc2nc(NC(=O)CSc3nnc(-c4ccc5ncccc5c4)n3-c3cccc4ccccc34)sc2c1`, the MIC with Pseudomonas aeruginosa was 25 µg/mL (≈ 42.5 µM); against Staphylococcus aureus, 200 µg/mL (≈ 340 µM); with Klebsiella pneumoniae, 100 µg/mL (≈ 170 µM); against Escherichia coli it was 100 µg/mL (≈ 170 µM); in the assay with Aspergillus niger it was 12.5 µg/mL (≈ 21.2 µM); in the assay on Bacillus cereus, 100 µg/mL (≈ 170 µM). This compound came in with an MIC against Candida albicans of 6.25 µg/mL (≈ 10.6 µM).

Turning to GENTAMICIN, the minimal inhibitory concentration (MIC) with Pseudomonas aeruginosa was 12.5 µg/mL; against Staphylococcus aureus, 6.25 µg/mL; with Klebsiella pneumoniae, 25 µg/mL; in the assay on Escherichia coli, 12.5 µg/mL; in the assay with Bacillus cereus, 6.25 µg/mL.

Regarding `CC1(C)S[C@@H]2[C@H](NC(=O)[C@H](N)c3ccccc3)C(=O)N2[C@H]1C(=O)O` [AMPICILLIN], the MIC in the assay with Pseudomonas aeruginosa is 25 µg/mL (≈ 71.5 µM); in the assay on Staphylococcus aureus, 12.5 µg/mL (≈ 35.8 µM); against Klebsiella pneumoniae, 25 µg/mL (≈ 71.5 µM); in the assay with Escherichia coli, 6.25 µg/mL (≈ 17.9 µM); with Bacillus cereus, 12.5 µg/mL (≈ 35.8 µM).

As for `O=C(CSc1nnc(-c2ccc3ncccc3c2)n1-c1cccc2ccccc12)Nc1nc2ccc(Br)cc2s1`, the MIC in the assay on Pseudomonas aeruginosa was 100 µg/mL (≈ 160 µM); against Staphylococcus aureus it was 50 µg/mL (≈ 80.2 µM); in the assay on Klebsiella pneumoniae, 100 µg/mL (≈ 160 µM); against Escherichia coli it was 62.5 µg/mL (≈ 100 µM); with Aspergillus niger, 50 µg/mL (≈ 80.2 µM); in the assay with Bacillus cereus, 25 µg/mL (≈ 40.1 µM). The MIC against Candida albicans is 25 µg/mL (≈ 40.1 µM).

For the compound `O=C(CSc1nnc(-c2ccc3ncccc3c2)n1-c1cccc2ccccc12)Nc1nc2ccc(F)cc2s1`, the MIC was found to be 100 µg/mL (≈ 178 µM) against Pseudomonas aeruginosa; 25 µg/mL (≈ 44.4 µM) against Staphylococcus aureus; 62.5 µg/mL (≈ 111 µM) with Klebsiella pneumoniae; 100 µg/mL (≈ 178 µM) against Escherichia coli; 25 µg/mL (≈ 44.4 µM) against Aspergillus niger; 50 µg/mL (≈ 88.9 µM) against Bacillus cereus. The same compound showed an MIC against Candida albicans of 50 µg/mL (≈ 88.9 µM).

Take `O=C(CSc1nnc(-c2ccc3ncccc3c2)n1-c1cccc2ccccc12)Nc1nc2ccc([N+](=O)[O-])cc2s1`: the MIC in the assay with Pseudomonas aeruginosa worked out at 50 µg/mL (≈ 84.8 µM); with Staphylococcus aureus, 200 µg/mL (≈ 339 µM); against Klebsiella pneumoniae, 50 µg/mL (≈ 84.8 µM); against Escherichia coli, 50 µg/mL (≈ 84.8 µM); against Aspergillus niger it was 6.25 µg/mL (≈ 10.6 µM); against Bacillus cereus it was 62.5 µg/mL (≈ 106 µM). In the assay on Candida albicans, this compound showed a minimal inhibitory concentration (MIC) of 50 µg/mL (≈ 84.8 µM).

As for `O=C(CSc1nnc(-c2ccc3ncccc3c2)n1-c1cccc2ccccc12)Nc1nc2ccccc2s1`, the MIC turned out to be 500 µg/mL (≈ 918 µM) against Pseudomonas aeruginosa; 500 µg/mL (≈ 918 µM) against Staphylococcus aureus; 500 µg/mL (≈ 918 µM) against Klebsiella pneumoniae; 250 µg/mL (≈ 459 µM) in the assay on Escherichia coli; 200 µg/mL (≈ 367 µM) against Aspergillus niger; 250 µg/mL (≈ 459 µM) in the assay with Bacillus cereus. Besides, in the assay on Candida albicans, it took 100 µg/mL (≈ 184 µM) to inhibit growth (MIC).

Regarding `CC(=O)Nc1ccc2nc(NC(=O)CSc3nnc(-c4ccc5ncccc5c4)n3-c3cccc4ccccc34)sc2c1`, the MIC with Pseudomonas aeruginosa was 62.5 µg/mL (≈ 104 µM); in the assay with Staphylococcus aureus, 500 µg/mL (≈ 831 µM); against Klebsiella pneumoniae, 250 µg/mL (≈ 415 µM); with Escherichia coli it was 200 µg/mL (≈ 332 µM); against Aspergillus niger it was 62.5 µg/mL (≈ 104 µM); with Bacillus cereus, 250 µg/mL (≈ 415 µM). In the assay on Candida albicans, the MIC worked out at 100 µg/mL (≈ 166 µM).

Take `O=C(CSc1nnc(-c2ccc3ncccc3c2)n1-c1cccc2ccccc12)Nc1nc2ccc(Cl)cc2s1`: the MIC with Pseudomonas aeruginosa worked out at 200 µg/mL (≈ 345 µM); with Staphylococcus aureus, 200 µg/mL (≈ 345 µM); in the assay on Klebsiella pneumoniae, 62.5 µg/mL (≈ 108 µM); in the assay on Escherichia coli, 100 µg/mL (≈ 173 µM); with Aspergillus niger, 100 µg/mL (≈ 173 µM); in the assay with Bacillus cereus, 100 µg/mL (≈ 173 µM). The MIC with Candida albicans was 50 µg/mL (≈ 86.3 µM).

As to `N#Cc1ccc2nc(NC(=O)CSc3nnc(-c4ccc5ncccc5c4)n3-c3cccc4ccccc34)sc2c1`, the MIC in the assay on Pseudomonas aeruginosa was determined as 100 µg/mL (≈ 176 µM); against Staphylococcus aureus, 500 µg/mL (≈ 878 µM); against Klebsiella pneumoniae, 50 µg/mL (≈ 87.8 µM); with Escherichia coli it was 50 µg/mL (≈ 87.8 µM); against Aspergillus niger, 100 µg/mL (≈ 176 µM); in the assay on Bacillus cereus, 200 µg/mL (≈ 351 µM). Besides, the MIC against Candida albicans came to 6.25 µg/mL (≈ 11 µM).

As to `O=C(CSc1nnc(-c2ccc3ncccc3c2)n1-c1cccc2ccccc12)Nc1nc2ccc(I)cc2s1`, the MIC worked out at 250 µg/mL (≈ 373 µM) against Pseudomonas aeruginosa; 250 µg/mL (≈ 373 µM) in the assay on Staphylococcus aureus; 100 µg/mL (≈ 149 µM) in the assay on Klebsiella pneumoniae; 250 µg/mL (≈ 373 µM) in the assay on Escherichia coli; 62.5 µg/mL (≈ 93.2 µM) against Aspergillus niger; 200 µg/mL (≈ 298 µM) against Bacillus cereus. Also, the MIC with Candida albicans worked out at 62.5 µg/mL (≈ 93.2 µM).

With `Cc1ccc2nc(NC(=O)CSc3nnc(-c4ccc5ncccc5c4)n3-c3cccc4ccccc34)sc2c1`, the MIC with Pseudomonas aeruginosa is 100 µg/mL (≈ 179 µM); against Staphylococcus aureus, greater than 500 µg/mL; against Klebsiella pneumoniae, 500 µg/mL (≈ 895 µM); with Escherichia coli, 200 µg/mL (≈ 358 µM); against Aspergillus niger it was 50 µg/mL (≈ 89.5 µM); against Bacillus cereus it was 250 µg/mL (≈ 447 µM). This compound showed an MIC in the assay on Candida albicans of 200 µg/mL (≈ 358 µM).

Turning to `OC(Cn1cncn1)(Cn1cncn1)c1ccc(F)cc1F` [FLUCONAZOLE], the MIC with Aspergillus niger is 6.25 µg/mL (≈ 20.4 µM); in the assay on Candida albicans it was 12.5 µg/mL (≈ 40.8 µM).

For orientation: MIC means the least concentration at which growth counts as inhibited. A low value points to a more susceptible organism.
